Measured values reported in patent US7375124B2, “Use of α-phenylthiocarboxylic and α-phenyloxycarboxylic acids with serum-glucose-lowering and serum-lipid-lowering activity” (Sigma-Tau Industrie Farmaceutiche Riunite S.p.A., priority 2002, dated 2008).
Where two headings read alike, the source gives them in different places.

Experiments:
C57BL/KsJ db/db mouse [1] = details: in vivo
Description: (§1) Plasma levels of glucose, insulin, triglycerides, cholesterol, free fatty acids and urea were checked for a well-matched distribution of mice in the treatment groups.
(§2) At the start of treatment the body weights of the mice were checked and arrangements were made for monitoring water and feed consumption.
(§3) In the course of the experiment, serum glucose levels, oral glucose tolerance test (OGTT) findings, a number of lipid status parameters and weight gain were monitored.

C57BL/KsJ db/db mouse [2] = assay: Antidiabetic and serum-lipid-lowering activity in the db/db mouse (Experiments I and II); details: for Variation % (AUC glucose at OGTT) vs control / AUC glucose at OGTT: OGTT glucose 3 g/kg; for AUC glucose at OGTT / Glucose (plasma) / Fructosamine (plasma) / HDL-choles. (plasma) / Triglycerides (plasma) / Glucose / Final b.w. / Initial b.w.: mean ± S.E.; for Glucose (plasma): postabsorption (fasting 9 a.m. to 4.30 p.m.); for Glucose (plasma) / Variation % (fructosamine) vs control / Variation % (plasma glucose) vs control / Fructosamine (plasma) / HDL-choles. (plasma) / Triglycerides (plasma): 7.5 hours after last treatment; for Glucose: blood; for Final b.w. / Initial b.w.: postabsorption condition; for Variation % (initial b.w.) vs control / Initial b.w.: initial body weight
Description: as §1, §2, §3

mPPARαLBD/Gal4DBD = target: T1, mPPARαLBD/Gal4DBD (Mus musculus, UniProt P23204); assay: Transactivation assay mediated by mPPARαLBD/Gal4DBD in COS-7 cells (CAT reporter); type: cell-based
T1 construct: expressed in transfected cells; host or cells: COS-7 (monkey kidney fibroblasts)
T1 sequence (P23204 239-466 limits assumed): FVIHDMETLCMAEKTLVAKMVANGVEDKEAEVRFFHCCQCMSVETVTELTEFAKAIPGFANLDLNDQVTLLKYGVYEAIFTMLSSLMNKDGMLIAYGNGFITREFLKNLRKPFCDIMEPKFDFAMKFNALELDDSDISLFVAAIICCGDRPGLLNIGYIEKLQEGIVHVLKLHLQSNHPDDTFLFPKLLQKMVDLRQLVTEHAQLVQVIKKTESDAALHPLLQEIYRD
Description: In this model a transactivation assay is used in which the expression vector mPPARαLBD/Gal4 DBD allows the synthesis by the transfected cell of a chimeric protein, in which the ligand binding domain (LBD) of PPARα is fused with the DNA binding domain (DBD) of the transcription factor GAL4 of yeast [Luckow B. et al., Nucleic Acids Res. 15, 5490 (1987)]. Simultaneously, a plasmid (pG5CAT) is transfected which contains 5 copies of the high-affinity binding site for GAL4 (also called UAS, upstream activating sequence), upstream of the viral promoter E1b fused with the CAT reporter gene [Moya-Camarena S. Y. et al., J. Lipid Res. 40 (8), 1426-33 (1999)]. This model eliminates interference by possible endogenous receptors.
This is due to the fact that the activation of E1b and the production of CAT will occur exclusively thanks to the interaction of GAL4 DBD with its own response element (UAS). Since the transcription factor GAL4 is not expressed in […] cells, transactivation of the reporter gene can take place only when, as a result of the interaction of a ligand with the LBD of PPARα, the chimeric protein PPARα/GAL4 recognises the UAS sequence on the plasmid pG5CAT. Together with the expression vector and the reporter vector the cells were also transfected with the plasmid pCH110 which provides the internal control for the efficiency of transfection and the normalisation of the results.
A monkey kidney fibroblast cell line (COS-7) was used [Elbrecht A. et al., J. Biol. Chem. 274 (12), 7913-22 (1999)]. The cells were co-transfected with the reporter vector, the expression plasmid coding for the fusion protein Gal4 DBD/PPARαLBD and the control vector pCH110. The cells were exposed to increasing concentrations of the study compounds and CAT activity was evaluated. Untreated cells were used as controls.
Monkey kidney fibroblasts (COS-7) were cultured according to the usual cell culture techniques, at 37° C. in a 5% v/v carbon dioxide atmosphere using as the growth medium DMEM (Dulbecco's modified Eagle's medium) modified with 3.7 g/l of sodium bicarbonate, 4 mM L-glutamine, 4.5 g/l of glucose, 1 mM sodium pyruvate and 10% v/v of foetal bovine serum, in the presence of streptomycin 100 μg/ml and penicillin 100 U/ml final.
The cells were co-transfected using the transfection reagent FuGENE6 (Roche), consisting of a defined mixture of lipids capable of complexing the DNA and of transporting it into the cells. Twenty-four hours prior to transfection the cells were plated at a density of 1.2×10^5 cells/well in 12-well plates and maintained at 37° C. in a 5% v/v CO2 atmosphere. […] Briefly, the transfection mixture containing 0.8 μg of the expression vector, 1.6 μg of the reporter vector, 0.8 μg of the control vector and 9 μl of the FuGENE6 reagent per well was added directly to the cells in the presence of culture medium devoid of serum. After 5 hours, the transfection medium was replaced by 1 ml of culture medium complete with serum and antibiotics in the presence or absence of the molecules to be tested at 3 different concentrations (2, 20 and 100 μM). Wy-14,643 (2 μM), a known ligand of PPARα, was used as the positive reference compound.
After 48 hours' incubation at 37° C. in a 5% v/v CO2 atmosphere, the cells were washed twice with 1 ml of phosphate buffer (PBS) and removed mechanically from the wells in TEN buffer (Tris[hydroxymethyl]aminomethane 10 mM pH 8, ethylenediamine-tetraacetic acid 1 mM pH 8, sodium chloride 0.1 M). After centrifuging for 3 minutes at 1000 rpm, the cells were resuspended in 65 μl of lysis buffer (Tris-HCl 0.25 M, pH 8) and then lysed thanks to three rapid freeze-thaw cycles. The insoluble cellular materials (debris) were removed by centrifuging at 15,000 rpm for 15 minutes at 4° C., and the supernatant was recovered and used for the CAT and β-galactosidase activity assays. […]

[3] = Experiment I, after 12 days' treatment, feeding state, approx. 15 hours after last treatment
[4] = Experiment I, after 12 days' treatment, postabsorption, 8 hours after last treatment
[5] = Experiment I, after 18 days' treatment
[6] = Experiment I, after 18 days' treatment, fasting 18 hours, 5 hours after last treatment
[7] = Experiment I, after 18 days' treatment, fasting 18 hours, 6 hours after last treatment
[8] = Experiment I, after 25 days' treatment
[9] = Experiment I, after 25 days' treatment, postabsorption
[10] = Experiment I, after 12 days' treatment, postabsorption (fasting 9 a.m. to 5 p.m.), 8 hours after last treatment
[11] = Experiment I, db/db mice, oral twice daily, after 12 days' treatment, feeding state, approx. 15 hours after last treatment
[12] = Experiment II, after 11 days' treatment, fasting 18 hours, 5 hours after last treatment
[13] = Experiment II, after 12 days' treatment
[14] = Experiment II, after 12 days' treatment, postabsorption

| Activation of reporter gene CAT as a percentage of the reference compound (WY-14,643 2 μM = 100%) (mPPARαLBD/Gal4DBD; 2 μM) | Activation of reporter gene CAT as a percentage of the reference compound (WY-14,643 2 μM = 100%) (mPPARαLBD/Gal4DBD; 20 μM) | Activation of reporter gene CAT as a percentage of the reference compound (WY-14,643 2 μM = 100%) (mPPARαLBD/Gal4DBD; 100 μM) | Compound | Variation % (glucose) vs control (C57BL/KsJ db/db mouse [2]; [3]) | Variation % (glucose) vs control (C57BL/KsJ db/db mouse [2]; [4]) | Variation % (AUC glucose at OGTT) vs control (C57BL/KsJ db/db mouse [2]; [5]) | AUC glucose at OGTT (C57BL/KsJ db/db mouse [2]; [6]) | Variation % (glucose) vs control (C57BL/KsJ db/db mouse [2]; [7]) | Variation % (HDL-cholesterol) vs control (C57BL/KsJ db/db mouse [2]; [8]) | Variation % (triglycerides) vs control (C57BL/KsJ db/db mouse [2]; [8]) | Glucose (plasma) (C57BL/KsJ db/db mouse [2]; [8]) | Variation % (fructosamine) vs control (C57BL/KsJ db/db mouse [2]; [9]) | Variation % (plasma glucose) vs control (C57BL/KsJ db/db mouse [2]; [9]) | Fructosamine (plasma) (C57BL/KsJ db/db mouse [2]; [9]) | HDL-choles. (plasma) (C57BL/KsJ db/db mouse [2]; [9]) | Triglycerides (plasma) (C57BL/KsJ db/db mouse [2]; [9]) | Glucose (C57BL/KsJ db/db mouse [2]; [10]) | Glucose (C57BL/KsJ db/db mouse [2]; [7]) | Glucose (C57BL/KsJ db/db mouse [2]; [11]) | further results |
| --- | --- | --- | --- | --- | --- | --- | --- | --- | --- | --- | --- | --- | --- | --- | --- | --- | --- | --- | --- | --- |
|  |  |  | CC(C)(Oc1ccc(CCNC(=O)c2ccc(Cl)cc2)cc1)C(=O)O [Bezafibrate, bezafibrate, reference compound] | +3% | +2% | −13% | 44476 ± 1827 a.u. | −13% | +14% | −7% | 536 ± 22 mg/dL | +26% | +18% | 1.01 ± 0.04Δ mM | 93.8 ± 3.8 mg/dL | 88.3 ± 12.7 mg/dL | 421 ± 30 mg/dL | 298 ± 21 mg/dL | 503 ± 21 mg/dL | Final b.w. (C57BL/KsJ db/db mouse [1]): 35.2 ± 1.3 g; Initial b.w. (C57BL/KsJ db/db mouse [1]): 33.7 ± 0.7 g; Variation % (final b.w.) vs control (C57BL/KsJ db/db mouse [1]): +24%; Variation % (initial b.w.) vs control (C57BL/KsJ db/db mouse [1]): +6% |
| 44.9% | 129.9% | 232.1% | COC(=O)C(C)(C)Sc1cccc(OCCc2ccc(Cl)cc2)c1 [Example 1, methyl 2-[3-[2-(4-chlorophenyl)ethoxy]phenylthio]isobutyrate] | −38% | −48% | −52% | 24527 ± 889 a.u. | −58% | +20% | −53% | 206 ± 8Δ mg/dl | −49% | −55% | 0.41 ± 0.04 mM | 98.0 ± 3.5[…] mg/dl | 45.3 ± 2.3 mg/dL | 216 ± 16 mg/dL | 144 ± 3Δ mg/dl | 303 ± 16 mg/dL | Variation % (final b.w.) vs control (C57BL/KsJ db/db mouse [2]; [8]): +27%; Final b.w. (C57BL/KsJ db/db mouse [2]; Experiment I, final body weight after 25 days' treatment): 35.9 ± 0.6 g; Variation % (initial b.w.) vs control (C57BL/KsJ db/db mouse [2]; Experiment I): +2%; Initial b.w. (C57BL/KsJ db/db mouse [2]; Experiment I): 32.3 ± 0.3 g; Variation % (glucose) vs control (C57BL/KsJ db/db mouse [2]; Experiment II, after 9 days' treatment, postabsorption, 8 hours after last treatment): −36%; Variation % (AUC glucose at OGTT) vs control (C57BL/KsJ db/db mouse [2]; Experiment II, after 11 days' treatment): −40%; AUC glucose at OGTT (C57BL/KsJ db/db mouse [2]; [12]): 25929 ± 1299 a.u.; Variation % (glucose) vs control (C57BL/KsJ db/db mouse [2]; [12]): −36%; Variation % (HDL-cholesterol) vs control (C57BL/KsJ db/db mouse [2]; [13]): +43%; Variation % (final b.w.) vs control (C57BL/KsJ db/db mouse [2]; [13]): +7%; Variation % (triglycerides) vs control (C57BL/KsJ db/db mouse [2]; [13]): −48%; Glucose (plasma) (C57BL/KsJ db/db mouse [2]; [13]): 356 ± 30 mg/dL; Variation % (plasma glucose) vs control (C57BL/KsJ db/db mouse [2]; [14]): −38%; HDL-choles. (plasma) (C57BL/KsJ db/db mouse [2]; [14]): 123.7 ± 1.9 mg/dL; Triglycerides (plasma) (C57BL/KsJ db/db mouse [2]; [14]): 45.1 ± 1.4 mg/dL; Glucose (C57BL/KsJ db/db mouse [2]; Experiment II, after 9 days' treatment, postabsorption (fasting 9 a.m. to 5 p.m.), 8 hours after last treatment): 223 ± 20Δ mg/dl; Glucose (C57BL/KsJ db/db mouse [2]; [12]): 158 ± 7 mg/dL; Final b.w. (C57BL/KsJ db/db mouse [2]; Experiment II, final body weight after 12 days' treatment): 40.3 ± 0.8[…] g; Variation % (initial b.w.) vs control (C57BL/KsJ db/db mouse [2]; Experiment II): −1%; Initial b.w. (C57BL/KsJ db/db mouse [2]; Experiment II): 38.6 ± 0.4 g |
| 113.1% | 284.9% | 421% | COC(=O)C(C)(C)Sc1cccc(OCCc2ccc(Cl)cc2Cl)c1 [Example 4, methyl 2-[3-(2-(2,4-dichlorophenyl)ethoxy)phenylthio]isobutyrate] |  |  |  |  |  |  |  |  |  |  |  |  |  |  |  |  |  |
